Assay [1] has as its target T1, Serine/threonine-protein phosphatase (Candida dubliniensis (strain CD36 / CBS 7987 / NCPF 3949 / NRRLY-17841) (Yeast), UniProt B9W6M3).
T1 sequence (B9W6M3 whole entry): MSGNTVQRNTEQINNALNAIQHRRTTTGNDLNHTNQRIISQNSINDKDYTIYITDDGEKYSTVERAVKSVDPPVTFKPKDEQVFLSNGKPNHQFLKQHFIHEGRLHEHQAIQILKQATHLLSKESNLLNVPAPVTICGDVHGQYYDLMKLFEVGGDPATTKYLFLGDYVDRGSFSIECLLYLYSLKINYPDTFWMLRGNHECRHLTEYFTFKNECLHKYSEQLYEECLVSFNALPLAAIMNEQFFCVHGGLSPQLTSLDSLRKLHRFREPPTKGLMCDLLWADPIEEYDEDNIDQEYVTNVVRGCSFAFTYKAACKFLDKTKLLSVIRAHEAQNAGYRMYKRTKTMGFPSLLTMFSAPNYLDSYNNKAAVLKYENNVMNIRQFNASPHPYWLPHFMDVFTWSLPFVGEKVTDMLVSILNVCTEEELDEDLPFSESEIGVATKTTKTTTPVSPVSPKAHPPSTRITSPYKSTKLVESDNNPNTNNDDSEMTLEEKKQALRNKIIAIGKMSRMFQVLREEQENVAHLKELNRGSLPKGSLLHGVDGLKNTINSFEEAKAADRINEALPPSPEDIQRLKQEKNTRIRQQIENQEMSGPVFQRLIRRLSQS
Briefly: blockers of CaCl2-induced CDRE-lacZ signaling – S. cerevisiae, luminescence, secondary, dose response (AID 2388).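 Also: yeast reporter cells carrying a calcineurin-responsive lacZ construct stimulated with calcium chloride; luminescent beta-galactosidase reporter signal in whole cells rather than isolated phosphatase activity; potency for inhibition where a drop in reporter signal means calcineurin blockade.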 The class given is functional, cell-based.

Assay [2] has as its target T2, Caspase-3 (Homo sapiens, UniProt P42574).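 Also: Dose-response selectivity test against caspase-3 for candidate inhibitors of sentrin-specific proteases (SENPs).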
T2 sequence (P42574 whole entry): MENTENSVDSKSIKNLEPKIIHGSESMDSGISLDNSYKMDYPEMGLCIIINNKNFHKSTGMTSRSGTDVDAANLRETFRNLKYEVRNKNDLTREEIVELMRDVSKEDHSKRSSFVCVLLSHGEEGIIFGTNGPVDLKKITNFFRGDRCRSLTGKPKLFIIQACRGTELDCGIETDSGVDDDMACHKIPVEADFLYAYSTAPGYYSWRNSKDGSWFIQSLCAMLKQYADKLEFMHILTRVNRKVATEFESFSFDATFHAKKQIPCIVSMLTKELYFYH
The class given is functional.

Assay [3] is described as follows: NIH-3T3 fibroblast cytotoxicity, dose response, cytotoxicity control, cell-based, fluorescence, Alamar Blue, secondary assay (AID 2327).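 Also: NIH-3T3 mouse fibroblasts cultured with fluconazole at 8 µg/mL.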 The class given is functional.
Assay [4] addresses T3, Sentrin-specific protease 8 (Homo sapiens, UniProt Q96LD8).
T3 sequence (Q96LD8 whole entry): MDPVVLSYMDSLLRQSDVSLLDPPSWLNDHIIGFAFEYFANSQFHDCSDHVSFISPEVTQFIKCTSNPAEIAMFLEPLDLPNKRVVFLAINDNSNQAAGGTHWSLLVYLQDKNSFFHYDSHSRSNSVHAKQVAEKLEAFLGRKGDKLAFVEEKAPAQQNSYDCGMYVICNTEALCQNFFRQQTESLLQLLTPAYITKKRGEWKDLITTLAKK
It counts as functional.

The target of assay [5] is T4, Sentrin-specific protease 6 (Homo sapiens, UniProt Q9GZR1).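 Also: Luminescence-based dose-response confirmatory assay of SENP6 inhibition, following up an ultra-high-throughput screen.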
T4 sequence (Q9GZR1 whole entry): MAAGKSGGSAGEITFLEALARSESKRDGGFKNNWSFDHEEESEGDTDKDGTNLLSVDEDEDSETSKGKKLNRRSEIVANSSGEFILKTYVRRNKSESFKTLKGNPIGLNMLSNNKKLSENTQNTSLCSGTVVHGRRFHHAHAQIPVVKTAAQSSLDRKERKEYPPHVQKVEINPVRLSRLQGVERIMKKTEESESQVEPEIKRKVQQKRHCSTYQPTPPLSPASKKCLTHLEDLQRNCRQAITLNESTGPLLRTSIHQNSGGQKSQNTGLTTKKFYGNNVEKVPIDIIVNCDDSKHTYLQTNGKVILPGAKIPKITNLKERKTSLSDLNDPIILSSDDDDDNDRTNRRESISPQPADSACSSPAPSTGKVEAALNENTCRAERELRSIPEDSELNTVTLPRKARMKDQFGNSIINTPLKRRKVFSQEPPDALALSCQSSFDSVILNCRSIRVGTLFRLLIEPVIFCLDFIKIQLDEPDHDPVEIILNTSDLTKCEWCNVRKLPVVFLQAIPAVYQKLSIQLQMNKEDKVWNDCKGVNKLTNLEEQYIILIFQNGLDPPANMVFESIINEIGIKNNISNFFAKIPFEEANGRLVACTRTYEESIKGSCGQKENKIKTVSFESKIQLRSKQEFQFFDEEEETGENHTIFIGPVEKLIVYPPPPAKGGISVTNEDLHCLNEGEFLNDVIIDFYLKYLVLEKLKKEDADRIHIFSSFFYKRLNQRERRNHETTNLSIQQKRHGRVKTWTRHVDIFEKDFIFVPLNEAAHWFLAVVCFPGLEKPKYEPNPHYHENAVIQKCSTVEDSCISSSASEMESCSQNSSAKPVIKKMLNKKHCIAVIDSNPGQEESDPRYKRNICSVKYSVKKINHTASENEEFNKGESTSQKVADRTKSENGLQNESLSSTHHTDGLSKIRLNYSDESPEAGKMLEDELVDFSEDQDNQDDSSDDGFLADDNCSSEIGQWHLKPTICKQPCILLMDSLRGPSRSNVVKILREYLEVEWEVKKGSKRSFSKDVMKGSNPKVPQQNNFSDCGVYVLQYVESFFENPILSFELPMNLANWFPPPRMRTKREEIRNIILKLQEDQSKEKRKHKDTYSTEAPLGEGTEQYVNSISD
The class given is functional.

Assay [6] is described as follows: fluconazole-exposed Candida albicans growth modulators – fluorescence, retest, confirmation (AID 2467). The class given is functional, cell-based.
Assay [7] concerns the target T5, Sentrin-specific protease 7 (Homo sapiens, UniProt Q9BQF6).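 Also: Luminescence-based dose-response confirmation of ultra-high-throughput screening hits, measuring inhibition of SENP7.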
T5 sequence (Q9BQF6 whole entry): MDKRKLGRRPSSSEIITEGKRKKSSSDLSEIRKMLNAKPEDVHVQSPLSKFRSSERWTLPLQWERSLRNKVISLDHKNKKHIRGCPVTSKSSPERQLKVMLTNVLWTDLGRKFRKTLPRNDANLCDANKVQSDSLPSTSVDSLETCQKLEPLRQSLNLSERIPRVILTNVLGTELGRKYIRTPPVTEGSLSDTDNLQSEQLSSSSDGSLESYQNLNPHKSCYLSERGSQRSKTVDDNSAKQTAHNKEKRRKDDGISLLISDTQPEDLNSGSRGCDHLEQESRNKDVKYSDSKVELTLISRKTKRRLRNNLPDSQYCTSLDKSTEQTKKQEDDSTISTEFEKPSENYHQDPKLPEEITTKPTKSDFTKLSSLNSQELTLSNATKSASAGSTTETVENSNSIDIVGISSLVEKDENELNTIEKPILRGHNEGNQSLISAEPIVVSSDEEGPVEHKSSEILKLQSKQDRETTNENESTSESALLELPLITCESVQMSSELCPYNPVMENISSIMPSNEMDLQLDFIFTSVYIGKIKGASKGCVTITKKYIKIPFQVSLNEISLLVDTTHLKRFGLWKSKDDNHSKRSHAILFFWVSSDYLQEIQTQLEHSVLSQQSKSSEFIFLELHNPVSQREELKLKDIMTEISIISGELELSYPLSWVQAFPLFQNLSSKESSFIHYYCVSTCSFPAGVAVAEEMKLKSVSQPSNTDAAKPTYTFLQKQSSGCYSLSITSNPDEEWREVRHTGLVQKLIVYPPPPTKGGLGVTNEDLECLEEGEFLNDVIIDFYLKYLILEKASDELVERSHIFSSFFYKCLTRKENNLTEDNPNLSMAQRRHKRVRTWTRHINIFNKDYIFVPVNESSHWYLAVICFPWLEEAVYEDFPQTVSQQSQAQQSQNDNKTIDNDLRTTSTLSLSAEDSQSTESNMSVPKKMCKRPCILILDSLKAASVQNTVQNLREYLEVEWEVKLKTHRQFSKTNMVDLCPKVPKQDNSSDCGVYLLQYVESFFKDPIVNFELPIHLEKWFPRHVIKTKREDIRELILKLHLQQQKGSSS
It counts as functional.

Assay [8] deals with ATP-dependent molecular chaperone HSP82 (Candida albicans (strain WO-1) (Yeast), UniProt C4YTQ8). Briefly: steroid-induced GRE reporter decrease in yeast – S. cerevisiae, luminescence, Hsp90 inhibitor project, dose response (AID 2400).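 Also: beta-galactosidase luminescence from glucocorticoid response element reporter as proxy for Hsp90 function; inhibitor potency where signal loss means Hsp90 inhibition.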 The class given is functional, cell-based.
In assay [9] the target is Cyclin-dependent kinase 5/CDK5 activator 1 (Homo sapiens, UniProt Q00535). In words: blockade of human CDK5 activity – biochemical, cherry-picked samples, set 2, dose response (AID 504545).
Assay [10] deals with Vero. Briefly: viability of Vero cells under compound – cytotoxicity control for flavivirus capping enzyme inhibitors (AID 588742). The class given is functional. Particulars: Chlorocebus sabaeus.
In assay [11] the target is G-protein coupled receptor 55 (Homo sapiens, UniProt Q9Y2T6). In words: inhibition of LPI-stimulated GPR55 beta-arrestin translocation – imaging, U2OS, beta-arrestin-GFP, LPI agonist, primary screen (AID 2013).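 Also: antagonist potency measured as reduced agonist-driven arrestin aggregation.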 The class given is functional.
In assay [12] the test system is Streptococcus. Briefly: GAS UMAA2166 growth inhibition – luminescence, BacTiterGlo, counter-screen for streptokinase expression inhibitor project, dose response (AID 1915).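 Also: potency for reduction of bacterial viability or growth.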 It counts as functional, organism-based. (In general: The purpose of a counterscreen is to sort out artefacts and off-target activity.)
For assay [13], the system named is Streptococcus sp. 'group A'. Briefly: Streptococcus pyogenes SK(-)GAS viability under kanamycin – luminescence, BacTiterGlo, confirmation, counter-screen for streptokinase expression inhibitor project, dose response (AID 1900). It counts as functional, organism-based.
Assay [14] concerns the target T6, Streptokinase A (Streptococcus pyogenes serotype M1, UniProt P10520).
T6 sequence (P10520 whole entry): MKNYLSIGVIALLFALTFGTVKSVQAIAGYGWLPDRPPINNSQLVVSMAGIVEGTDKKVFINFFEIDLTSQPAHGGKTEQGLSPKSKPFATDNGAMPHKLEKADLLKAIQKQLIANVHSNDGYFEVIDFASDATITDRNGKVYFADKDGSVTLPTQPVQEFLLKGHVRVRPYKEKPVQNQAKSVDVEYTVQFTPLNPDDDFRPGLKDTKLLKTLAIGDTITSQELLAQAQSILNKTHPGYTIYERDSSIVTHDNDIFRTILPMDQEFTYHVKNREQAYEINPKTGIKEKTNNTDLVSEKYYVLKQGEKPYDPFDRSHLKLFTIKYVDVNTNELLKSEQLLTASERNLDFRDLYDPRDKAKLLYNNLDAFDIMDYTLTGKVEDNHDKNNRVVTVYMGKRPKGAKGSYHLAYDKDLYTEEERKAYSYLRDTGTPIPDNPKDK
In words: viability-normalized secreted streptokinase activity reduction – plasminogen activation absorbance, OD405, dose response (AID 1914).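 Also: secreted streptokinase activity via plasminogen activation per viability signal from cell pellet.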 The class given is functional, Streptococcus pyogenes M1 GAS.

In assay [15] the test system is HEK293. In words: EBV LMP1 TES2 canonical NF-kB signalling blockers – cell-based, HEK293, luciferase, cherry-pick, dose response (AID 588343). The class given is functional. The conditions noted are these: Homo sapiens.
Assay [16] is described as follows: blockade of melanocortin 4 receptor signaling – cell-based, plate reader, cherry pick, counter-screen for LGR2 antagonist project, dose response (AID 743444).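 Also: transfected HEK 293 cells stimulated with alpha-MSH peptide; potency of inhibitors of the alpha-MSH evoked signal.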 It counts as functional.
A short description of assay [17]: blockers of bursicon-stimulated LGR2 cAMP reporter – cell-based, HEK293, CRE-luciferase reporter, cherry pick, set 2, dose response (AID 743343).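 Also: transfected cells were stimulated with diluted bursicon conditioned medium after compound addition.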 It counts as functional.

Each structure is given as a SMILES string. Active and inactive are the calls of the source.

ATP-dependent molecular chaperone HSP82, sequence (C4YTQ8 whole entry): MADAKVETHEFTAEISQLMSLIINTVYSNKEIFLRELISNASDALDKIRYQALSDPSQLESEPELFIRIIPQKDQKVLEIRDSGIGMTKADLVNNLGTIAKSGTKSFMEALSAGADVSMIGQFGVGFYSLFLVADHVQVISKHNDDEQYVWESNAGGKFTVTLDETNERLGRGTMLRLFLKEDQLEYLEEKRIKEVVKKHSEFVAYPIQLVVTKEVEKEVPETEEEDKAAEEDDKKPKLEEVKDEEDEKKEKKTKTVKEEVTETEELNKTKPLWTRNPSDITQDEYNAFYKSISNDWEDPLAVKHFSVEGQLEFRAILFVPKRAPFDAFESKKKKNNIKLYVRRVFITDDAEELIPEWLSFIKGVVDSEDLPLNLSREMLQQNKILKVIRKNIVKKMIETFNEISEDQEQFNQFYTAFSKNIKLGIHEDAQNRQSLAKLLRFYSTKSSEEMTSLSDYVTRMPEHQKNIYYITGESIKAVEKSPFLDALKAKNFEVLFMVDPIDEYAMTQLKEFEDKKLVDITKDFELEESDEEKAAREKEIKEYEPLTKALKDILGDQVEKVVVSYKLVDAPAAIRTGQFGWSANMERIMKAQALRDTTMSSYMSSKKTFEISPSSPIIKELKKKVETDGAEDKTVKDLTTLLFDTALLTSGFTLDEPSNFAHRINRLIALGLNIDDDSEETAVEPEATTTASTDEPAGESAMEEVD
Cyclin-dependent kinase 5/CDK5 activator 1, sequence (Q00535 whole entry): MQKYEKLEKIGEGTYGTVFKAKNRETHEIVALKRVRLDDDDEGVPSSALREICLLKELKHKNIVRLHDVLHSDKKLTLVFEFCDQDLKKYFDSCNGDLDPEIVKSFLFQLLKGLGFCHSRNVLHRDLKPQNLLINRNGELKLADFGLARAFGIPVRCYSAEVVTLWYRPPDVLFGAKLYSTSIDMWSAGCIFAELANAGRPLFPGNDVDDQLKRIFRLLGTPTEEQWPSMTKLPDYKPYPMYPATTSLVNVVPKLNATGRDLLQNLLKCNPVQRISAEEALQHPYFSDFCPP
Cyclin-dependent kinase 5/CDK5 activator 1, sequence (Q15078 whole entry, further chain): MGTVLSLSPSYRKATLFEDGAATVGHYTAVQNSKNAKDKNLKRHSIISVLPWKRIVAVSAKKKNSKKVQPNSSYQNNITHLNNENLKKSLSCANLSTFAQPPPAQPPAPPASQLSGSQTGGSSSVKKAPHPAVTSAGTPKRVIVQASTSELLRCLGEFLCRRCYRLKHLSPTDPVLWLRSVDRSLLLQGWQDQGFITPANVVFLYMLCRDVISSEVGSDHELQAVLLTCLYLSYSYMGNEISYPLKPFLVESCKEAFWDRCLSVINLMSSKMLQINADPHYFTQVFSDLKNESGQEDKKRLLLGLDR
G-protein coupled receptor 55, sequence (Q9Y2T6 whole entry): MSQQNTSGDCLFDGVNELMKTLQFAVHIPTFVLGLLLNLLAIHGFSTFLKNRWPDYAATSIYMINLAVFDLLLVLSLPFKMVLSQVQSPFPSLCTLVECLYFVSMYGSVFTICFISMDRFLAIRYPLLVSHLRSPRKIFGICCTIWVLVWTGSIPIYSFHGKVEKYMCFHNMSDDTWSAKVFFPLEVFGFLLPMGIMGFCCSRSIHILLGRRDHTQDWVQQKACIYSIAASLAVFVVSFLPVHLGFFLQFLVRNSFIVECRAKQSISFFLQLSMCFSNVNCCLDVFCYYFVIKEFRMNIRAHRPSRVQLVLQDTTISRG

For the molecule `CCNc1nc(N)nc(-c2cc(Cl)ccc2O)n1`, the EC50 (as a rule, the concentration giving half of the maximal effect) was > 180 µM (inactive) in assay [1], 40.2 µM (active) in assay [3], 530 nM (active) in [6] and 20.1 µM (active) in assay [8]. For the same molecule, the IC50 (usually the point on the concentration scale where inhibition reaches its midpoint) was 18.9 µM (active) in assay [2], 13.7 µM (active) in assay [4], 12 µM (active) in [5] and 3.99 µM (active) in assay [7]. Moreover, the AC50 (in general, the concentration giving half of the maximal activity seen) in assay [9] was 7.06 µM (active).

In the case of `O=C1C(=Cc2ccccc2[N+](=O)[O-])Cc2ccccc21`, the 50% cytotoxic concentration (CC50) (in general, the concentration that lowers cell viability or growth by half) in assay [10] is 20.9 µM (active).

Regarding `COc1ccc(NC2=NCC(Cc3ccc(Br)cc3)S2)cc1` (stereo unspecified), the IC50 in [11] is 1.31 µM (active). In addition, the EC50 was > 150 µM (not active) in assay [12], 9.96 µM (active) in assay [13] and > 150 µM (not active) in assay [14]. The AC50 in assay [15] was 183 µM (active).

Take `Cc1cnc(NC(=O)c2ccc(OCC3CCCO3)cc2)s1` (stereo unspecified): the AC50 in assay [15] is 1.93 µM (active); in [16], 5.51 µM (active); in assay [17], 4.84 µM (active).

Consider `CCOC(=O)c1cn2nc(N3CCCCC3)ccc2n1`, for which the values for the AC50 in assay [15], in assay [16] and in assay [17] were 2.8 µM (active), 5.1 µM (active) and 2.62 µM (active), respectively.

(Values after ChEMBL document CHEMBL1201862, “PubChem BioAssay data set” (2004).)
